In BindingDB's records for doi:10.1021/acs.jmedchem.8b00250 (University of Liege, 2018):

Target: Glutamate receptor 2 (Homo sapiens, UniProt P42262)
Assay: Positive allosteric modulation of GluA2Q flop isoform (unknown origin) expressed in HEK293 cells assessed as increase in L-glutamate induced calcium flux after 1 hr by fluo-4AM dye-based fluorescence assay

Sequence of Glutamate receptor 2 (P42262 whole entry, canonical isoform): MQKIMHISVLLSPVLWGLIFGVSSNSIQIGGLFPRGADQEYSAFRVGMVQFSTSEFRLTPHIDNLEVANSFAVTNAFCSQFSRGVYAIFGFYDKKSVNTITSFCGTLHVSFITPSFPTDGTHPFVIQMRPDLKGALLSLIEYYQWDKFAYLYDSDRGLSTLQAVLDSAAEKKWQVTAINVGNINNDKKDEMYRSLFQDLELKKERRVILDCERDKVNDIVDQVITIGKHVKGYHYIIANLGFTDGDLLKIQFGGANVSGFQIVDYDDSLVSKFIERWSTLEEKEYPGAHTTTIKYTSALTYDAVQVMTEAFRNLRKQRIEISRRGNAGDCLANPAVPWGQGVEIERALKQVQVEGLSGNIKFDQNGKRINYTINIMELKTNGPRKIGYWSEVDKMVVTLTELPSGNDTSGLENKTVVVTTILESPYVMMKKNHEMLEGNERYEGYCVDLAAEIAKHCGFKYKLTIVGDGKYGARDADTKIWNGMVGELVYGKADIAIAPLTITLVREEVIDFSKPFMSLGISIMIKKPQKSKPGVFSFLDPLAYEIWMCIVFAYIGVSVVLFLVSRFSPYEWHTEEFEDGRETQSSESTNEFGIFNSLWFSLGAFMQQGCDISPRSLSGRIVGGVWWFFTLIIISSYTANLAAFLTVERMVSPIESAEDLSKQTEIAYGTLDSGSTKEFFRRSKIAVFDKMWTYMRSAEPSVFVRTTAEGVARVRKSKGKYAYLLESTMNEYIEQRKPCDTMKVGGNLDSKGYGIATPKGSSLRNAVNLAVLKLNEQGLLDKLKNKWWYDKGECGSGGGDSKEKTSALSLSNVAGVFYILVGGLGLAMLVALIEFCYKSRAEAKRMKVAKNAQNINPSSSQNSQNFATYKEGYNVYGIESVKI

- EC50: 1.3 nM
Structure (SMILES): O=S1(=O)NCN(C2CC2)c2cc(CCc3ccc4c(c3)N(C3CC3)CNS4(=O)=O)ccc21
